{"source": "patent US20180133223A1", "about": "“COMBINATION THERAPY WITH A PHOSPHOINOSITIDE 3-KINASE INHIBITOR WITH A ZINC BINDING MOIETY” (Curis, Inc., priority 2016, published 2018)", "key": {"[1]": {"system": "HDACs (HeLa cell nuclear extracts)", "test": "HDAC activity assay (Biomol Color de Lys), HeLa cell nuclear extracts", "type": "biochemical", "settings": "HeLa cell nuclear extracts as source of HDACs", "experimental": "HDAC inhibitory activity was assessed using the Biomol Color de Lys system (AK-500, Biomol, Plymouth Meeting, Pa.). Briefly, HeLa cell nuclear extracts were used as a source of HDACs. Different concentrations of test compounds were serially diluted in dimethylsulfoxide (DMSO) and added to HeLa cell nuclear extracts in the presence of a colorimetric artificial substrate. Final assay condition contained 50 mM Tris/Cl, pH 8.0, 137 mM NaCl, 2.7 mM KCl and 1 mM MgCl2. Reactions were carried in room temperature (25° C.) for 1 hour before addition of developer for termination. Relative enzyme activity was measured in the WALLAC Victor II 1420 microplate reader as fluorescence intensity (excitation: 350-380 nm; emission: 440-460 nm). Data were analyzed using GraphPad Prism (v4.0a) with a sigmoidal dose response curve fitting for IC50 calculation."}, "OCILY3": {"system": "OCILY3", "test": "Tumor growth inhibition, OCILY3", "type": "in vivo", "settings": "OCILY3, 100 mg/kg"}, "SUDHL4": {"system": "SUDHL4", "test": "SU-DHL-4 diffuse large B cell lymphoma xenograft model", "type": "in vivo, mice", "settings": "SUDHL4, 100 mg/kg", "experimental": "7- to 9-week-old female immunodeficient Fox Chase SCID Beige mice (15-24 g) obtained from Charles River Laboratories (Wilmington, Mass.) were subcutaneously injected with 5×10^6 SU-DHL-4 cells in a medium suspension of 100 μL cold PBS into the right hind flank region. The treatment was started 29 days following implantation; the average tumor size reached was 126 mm^3. […] Venetoclax (ABT-199) was dissolved in Vehicle 2 (60% phosal 50 PG, 30% PEG 400 and 10% ethanol) to a concentration of 20 mg/mL.\nIn Groups H to K, Compound 1 and venetoclax were dosed within one minute of each other.\nTumor size was measured twice weekly and the volume was expressed in mm^3 using the formula, V=0.5a×b^2, where a and b were the long and short diameters of the tumor, respectively. The tumor size was then used for the calculation of tumor growth inhibition (TGI)=(1−(T1−T0)/(C1−C0))×100, where C1=mean tumor volume of control mice at time t; T1=mean tumor volume of treated mice at time t; C0=mean tumor volume of control mice at time 0; and T0=mean tumor volume of treated mice at time 0.\n(§1) Differences between values obtained in tumors treated with different experimental conditions were determined using the Student's t-test on GraphPad Prism 5.0 (Graphpad Software). p<0.05 was considered as statistically significant."}, "KARPAS422": {"system": "KARPAS422", "test": "Tumor growth inhibition, KARPAS422", "type": "in vivo", "settings": "KARPAS422, 100 mg/kg"}, "WSUDLCL2": {"system": "WSUDLCL2", "test": "Tumor growth inhibition, WSUDLCL2", "type": "in vivo", "settings": "WSUDLCL2, 100 mg/kg"}, "DOHH2": {"system": "DOHH2", "test": "DOHH2 diffuse large B cell lymphoma xenograft model", "type": "in vivo, mice", "settings": "DOHH2, 100 mg/kg", "experimental": "Six- to 9-week-old female immunodeficient Fox Chase SCID Beige mice obtained from Charles River Laboratories (Wilmington, Mass.) were subcutaneously injected with 5×10^6 cells in a medium suspension of 100 to 200 μL into the right hind flank region. The treatment was started when the average tumor size reached approximately 100 to 200 mm^3. […] Venetoclax was formulated in 60% phosal 50PG, 30% PEG 400, 10% ethanol (Vehicle 2; Sigma Aldrich, St. Louis, Mo.).\nVarying doses of Compound 1 alone, venetoclax alone, the two agents in combination or vehicle were administered orally as per Institutional Animal Care and Use Committee guidelines. […] Venetoclax and Vehicle 2 were dosed daily for 21 days.\nTumor size was measured twice weekly and the volume was expressed in mm^3 using the formula, V=0.5a×b^2, where a and b were the long and short diameters of the tumor, respectively. […]\nas §1"}, "U2932": {"system": "U2932", "test": "Tumor growth inhibition, U2932", "type": "in vivo", "settings": "U2932, 100 mg/kg"}, "[2]": {"test": "Oral bioavailability in animal models", "type": "in vivo"}, "[3]": {"test": "Tumor tissue uptake in xenograft tumor bearing mice", "type": "in vivo", "settings": "oral or intravenous dosing"}, "xenograft tumor": {"system": "xenograft tumor", "test": "Mouse xenograft tumor models", "type": "in vivo", "settings": "oral or intravenous administration"}, "[4]": {"test": "Genotoxicity testing, Ames test"}, "DOHH2 cells": {"system": "DOHH2 cells", "test": "Cancer cell proliferation / drug combination (CellTiter-Glo)", "type": "cell-based", "settings": "DOHH2, Follicular Lymphoma, single agent; read-out: ABT-199 EC50", "experimental": "(§2) DLBCL cancer cell lines were purchased from the American Type Culture Collection (Manassas, Va.) and German Collection of Microorganisms and Cell Cultures (Braunschweig, Germany). Cells were maintained according to manufacturing recommendation and incubated at 37° C. in a humidified atmosphere of 5% CO2. Growth media was changed every 2 to 3 days and cells were maintained at a density of 2×10^6 to 4×10^6 cells/mL. Exponentially growing cell cultures were used for all experiments described below.\n(§3) Cells were plated at densities of 2×10^4 in 96-well flat-bottomed plates with the recommended culture medium for proliferation assays. Cells were then incubated with indicated compounds at various concentrations for indicated amount of time in culture medium supplemented with 10% (v/v) FBS. Cell viability was assessed using the […]-GLO® Luminescent Cell Viability Assay (Promega, Madison, Wis.). GraphPad Prism 5.0 (Graphpad Software, La Jolla, Calif.) was used for curve fitting and IC50 calculation. Two independent experiments with duplicates were performed for each experiment.\n(§4) Drug combination synergy was determined based on dose-effect curves generated as cell proliferation after 24 hours of treatment."}, "KARPAS422 cells": {"system": "KARPAS422 cells", "test": "Cancer cell proliferation / drug combination (CellTiter-Glo)", "type": "cell-based", "experimental": "as §2, §3, §4"}, "OCILY3 cells": {"system": "OCILY3 cells", "test": "Cancer cell proliferation / drug combination (CellTiter-Glo)", "type": "cell-based", "experimental": "as §2, §3, §4"}, "SUDHL4 cells": {"system": "SUDHL4 cells", "test": "Cancer cell proliferation / drug combination (CellTiter-Glo)", "type": "cell-based", "experimental": "as §2, §3, §4"}, "U2932 cells": {"system": "U2932 cells", "test": "Cancer cell proliferation / drug combination (CellTiter-Glo)", "type": "cell-based", "settings": "U2932, ABC DLBCL, single agent; read-out: ABT-199 EC50", "experimental": "as §2, §3, §4"}, "WSUDLCL2 cells": {"system": "WSUDLCL2 cells", "test": "Cancer cell proliferation / drug combination (CellTiter-Glo)", "type": "cell-based", "experimental": "as §2, §3, §4"}}, "note": "Marks after values point to notes of the source that are not given here.", "data": [{"compound": "COc1ccc(-c2nc(N3CCOCC3)c3sc(CN(C)c4ncc(C(=O)NO)cn4)cc3n2)cn1", "note": "[Compound 1, N-hydroxy-2-(((2-(6-methoxypyridin-3-yl)-4-morpholinothieno[3,2-d]pyrimidin-6-yl)methyl)(methyl)amino)pyrimidine-5-carboxamide]", "values": [{"measurement": "IC50", "setting": "[1]", "result": "< 100", "unit": "nM"}, {"measurement": "Compound 1 %TGI (100 mg/kg)", "setting": "OCILY3", "result": 23, "unit": "%"}, {"measurement": "Compound 1 %TGI (100 mg/kg)", "setting": "SUDHL4", "result": 47, "unit": "%*"}, {"measurement": "Compound 1 %TGI (100 mg/kg)", "setting": "KARPAS422", "result": 33, "unit": "%"}, {"measurement": "Compound 1 %TGI (100 mg/kg)", "setting": "WSUDLCL2", "result": 69, "unit": "%"}, {"measurement": "Compound 1 %TGI (100 mg/kg)", "setting": "DOHH2", "result": 56, "unit": "%"}, {"measurement": "Compound 1 %TGI (100 mg/kg)", "setting": "U2932", "result": 97, "unit": "%"}, {"measurement": "oral bioavailability", "setting": "[2]", "result": "significant oral bioavailability"}, {"measurement": "uptake by the tumor tissue", "setting": "[3]", "result": "significant uptake by the tumor tissue"}, {"measurement": "antitumor activity", "setting": "xenograft tumor", "result": "substantial antitumor activity"}, {"measurement": "safety profile, genotoxicity (Ames test)", "setting": "[4]", "result": "favorable safety profile"}]}, {"compound": "venetoclax [ABT-199]", "values": [{"measurement": "EC50", "setting": "DOHH2 cells", "result": 133, "unit": "nM"}, {"measurement": "sensitivity of cell line to single agent", "setting": "KARPAS422 cells; KARPAS422", "result": "refractory"}, {"measurement": "EC50", "setting": "KARPAS422 cells; KARPAS422, Follicular Lymphoma, single agent, read-out: ABT-199 EC50", "result": 15600, "unit": "nM"}, {"measurement": "sensitivity of cell line to single agent", "setting": "OCILY3 cells; OCILY3", "result": "refractory"}, {"measurement": "EC50", "setting": "OCILY3 cells; OCILY3, ABC DLBCL, single agent, read-out: ABT-199 EC50", "result": 20000, "unit": "nM"}, {"measurement": "sensitivity of cell line to single agent", "setting": "SUDHL4 cells; SUDHL4", "result": "refractory"}, {"measurement": "EC50", "setting": "SUDHL4 cells; SUDHL4, GBC DLBCL, single agent, read-out: ABT-199 EC50", "result": 2130, "unit": "nM"}, {"measurement": "EC50", "setting": "U2932 cells", "result": 476, "unit": "nM"}, {"measurement": "sensitivity of cell line to single agent", "setting": "WSUDLCL2 cells; WSUDLCL2", "result": "refractory"}, {"measurement": "EC50", "setting": "WSUDLCL2 cells; WSUDLCL2, GCB DLBCL, single agent, read-out: ABT-199 EC50", "result": 3660, "unit": "nM"}]}]}
